Measured values taken from patent US8809232B2, “Herbicidal compositions comprising 4-amino-3-chloro-5-fluoro-6-(4-chloro-2-fluoro-3-methoxyphenyl) pyridine-2-carboxylic acid or a derivative thereof and halosulfuron, pyrazosulfuron and esprocarb” (Dow Agrosciences LLC, priority 2012, dated 2014).

Assays:
ECHOR = experiment: In-water applied herbicidal mixtures, greenhouse, transplanted paddy rice weeds; type: in vivo, Echinochloa oryzoides (Ard.) Fritsch
Description: (§1) Weed seeds or nutlets of the desired test plant species were planted in puddled soil (mud) prepared by mixing a shredded, non-sterilized mineral soil (50.5 percent silt, 25.5 percent clay, and 24 percent sand, with a pH of about 7.6 and an organic matter content of about 2.9 percent) and water at a 1:1 volumetric ratio. The prepared mud was dispensed in 365 mL aliquots into 16-ounce (oz.) non-perforated plastic pots with a surface area of 86.59 square centimeters (cm^2) leaving a headspace of 3 centimeters (cm) in each pot Mud was allowed to dry overnight prior to planting or transplanting. Rice seeds were planted in Sun Gro MetroMix® 306 planting mixture, which typically has a pH of 6.0 to 6.8 and an organic matter content of about 30 percent, in plastic plug trays. Seedlings at the second or third leaf stage of growth were transplanted into 840 mL of mud contained in 32-oz. non-perforated plastic pots with a surface area of 86.59 cm^2 4 days prior to herbicide application. The paddy was created by filling the headspace of the pots with 2.5 to 3 cm of water. When required to ensure good germination and healthy plants, a fungicide treatment and/or other chemical or physical treatment was applied. The plants were grown for 4-22 days in a greenhouse with an approximate 14 hr photoperiod which was maintained at about 29′C during the day and 26° C. during the night. Nutrients were added as Osmocote® (19:6:12, N:P:K^+ minor nutrients) at 2 g per 16-oz. pot and 4 g per 32-oz. pot. Water was added on a regular basis to maintain the paddy flood, and supplemental lighting was provided with overhead metal halide 1000-Watt lamps as necessary. The plants were employed for testing when they reached the first through fourth true leaf stage.
(§2) Treatments consisted of the acid or esters of 4-amino-3-chloro-5-fluoro-6-(4-chloro-2-fluoro-3-methoxy-phenyl)pyridine-2-carboxylic acid (compound A) each formulated as an SC (suspension concentrate) and various herbicidal components alone and in combination. Forms of compound A were applied on an acid equivalent basis.
(§3) Other herbicidal components were applied on an active ingredient basis and included acetolactate synthase (ALS)-inhibiting herbicides formulated as Permit® 75 WDG, pyrazosulfuron-ethyl formulated as Agreen® WG or Sirius® G, and VLCFA inhibiting herbicide esprocarb (technical grade material).
(§4) Treatment requirements for each compound or herbicidal component were calculated based upon the rates being tested, the concentration of active ingredient or acid equivalent in the formulation, an application volume of 2 mL per component per pot, and an application area of 86.59 cm^2 per pot.
(§5) For formulated compounds, a measured amount was placed in an individual 100 or 200 mL glass vial and was dissolved in a volume of 1.25% (v/v) Agri-Dex® crop oil concentrate to obtain application solutions.
(§6) For technical grade compounds, a weighed amount was placed in an individual 100 to 200 mL glass vial and was dissolved in a volume of acetone to obtain concentrated stock solutions. […] The concentrated stock solutions obtained were diluted with an equivalent volume of an aqueous mixture containing 2.5% (v/v) crop oil concentrate so that the final application solutions contained 1.25% (v/v) crop oil concentrate.
(§7) Applications were made by injecting with a pipetter appropriate amounts of the application solutions, individually and sequentially, into the aqueous layer of the paddy. Control plants were treated in the same manner with the solvent blank. Applications were made so that all treated plant material received the same concentrations of acetone and crop oil concentrate.
(§8) The treated plants and control plants were placed in a greenhouse as described above and water was added as needed to maintain a paddy flood. […]

CYPRO = experiment: as above; type: in vivo, Cyperus rotundus L.
Description: as §1, §2, §3, §4, §5, §6, §7, §8

SCPMA = experiment: as above; type: in vivo
Description: as §1, §2, §3, §4, §5, §6, §7, §8

ECHCG = experiment: as above; type: in vivo, Echinochloa crus-galli (L.) Beauv.; conditions: 17.5 g ai/ha
Description: as §1, with “Water was added on a regular basis to maintain the paddy flood, and supplemental lighting was provided with overhead metal halide 1000-Watt lamps as necessary. The plants were employed for testing when they reached the first through fourth true leaf stage.” left out
as §4
(§9) For formulated compounds, a measured amount was placed in an individual 100 or 200 mL glass vial and was dissolved in a volume of 1.25% (v/v) Agri-Dex® crop oil concentrate to obtain application solutions. […]

BRAPP = experiment: Post-emergence foliar-applied herbicidal mixtures, greenhouse, direct seeded rice weeds; type: in vivo
Source text: (§10) Seeds or nutlets of the desired test plant species were planted in a soil matrix prepared by mixing a loam or sandy loam soil (e.g., 28.6 percent silt, 18.8 percent clay, and 52.6 percent sand, with a pH of about 5.8 and an organic matter content of about 1.8 percent) and calcareous grit in an 80 to 20 ratio. The soil matrix was contained in plastic pots with a volume of 1 quart and a surface area of 83.6 square centimeters (cm^2). When required to ensure good germination and healthy plants, a fungicide treatment and/or other chemical or physical treatment was applied. The plants were grown for 8-22 days in a greenhouse with an approximate 14 hr photoperiod which was maintained at about 29° C. during the day and 26° C. during the night. Nutrients (Peters Excel® 15-5-15 5-Ca 2-Mg and iron chelate) were applied in the irrigation solution as needed and water was added on a regular basis. Supplemental lighting was provided with overhead metal halide 1000-Watt lamps as necessary. The plants were employed for testing when they reached the first through fourth true leaf stage.
as §2, with “(Compound A),” for “(compound A)”, “concentrate),” for “concentrate)”
(§11) Other herbicidal components were applied on an active ingredient basis and included the acetolactate synthase (ALS)-inhibiting herbicides halosulfuron-methyl formulated as Permit® 75 WDG, pyrazosulfuron-ethyl formulated as Agreen® WG or Sirius® G, and the VLCFA inhibiting herbicide esprocarb (technical grade material).
(§12) Treatment requirements were calculated based upon the rates being tested, the concentration of active ingredient or acid equivalent in the formulation, and a 12 mL application volume at a rate of 187 L/ha.
(§13) For treatments comprised of formulated compounds, measured amounts of compounds were placed individually in 25 mL glass vials and diluted in a volume of 1.25% (v/v) Agri-Dex® crop oil concentrated to obtain 12× stock solutions. […] Application solutions were prepared by adding an appropriate amount of each stock solution (e.g., 1 mL) and diluted to the appropriate final concentrations with the addition of 10 mL of an aqueous mixture of 1.25% (v/v) crop oil concentrate so that the final spray solutions contained 1.25+/−0.05% (v/v) crop oil concentrate.
(§14) For treatments comprised of technical compounds, weighed amounts can be placed individually in 25 mL glass vials and dissolved in a volume of 97:3 v/v acetone/DMSO to obtain 12× stock solutions. […] Application solutions can be prepared by adding an appropriate amount of each stock solution (e.g., 1 mL) and diluted to the appropriate final concentrations with the addition of 10 mL of an aqueous mixture of 1.5% (v/v) crop oil concentrate so that the final spray solutions contain 1.25% (v/v) crop oil concentrate. When technical materials are used, the concentrated stock solutions can be added to the spray solutions so that the final acetone and DMSO concentrations of the application solutions are 16.2% and 0.5%, respectively.
(§15) For treatments comprised of formulated and technical compounds, weighed amounts of the technical materials were placed individually in 25 mL glass vials and dissolved in a volume of 97:3 v/v acetone/DMSO to obtain 12× stock solutions, and measured amounts of the formulated compounds were placed individually in 25 mL glass vials and diluted in a volume of 1.5% (v/v) crop oil concentrate or water to obtain 12× stock solutions. […] Application solutions were prepared by adding an appropriate amount of each stock solution (e.g., 1 mL) and diluted to the appropriate final concentrations with the addition of an appropriate amount of an aqueous mixture of 1.5% (v/v) crop oil concentrate so that the final spray solutions contained 1.25% (v/v) crop oil concentrate. […]

LEFCH [1] = experiment: as above; type: in vivo, Leptochloa chinensis (L.) Nees
Source text: as §10
as §2, with “(Compound A),” for “(compound A)”, “concentrate),” for “concentrate)”
as §11, §12, §13, §14, §15

DIGSA = experiment: as above; type: in vivo, Digitaria sanguinalis (L.) Scop.
Source text: as §10
as §2, with “(Compound A),” for “(compound A)”, “concentrate),” for “concentrate)”
as §11, §12, §13, §14, §15

LEFCH [2] = experiment: In-water applied herbicidal mixtures, greenhouse, transplanted paddy rice weeds; type: in vivo, Leptochloa chinensis (L.) Nees
Description: as §1, with “Water was added on a regular basis to maintain the paddy flood, and supplemental lighting was provided with overhead metal halide 1000-Watt lamps as necessary. The plants were employed for testing when they reached the first through fourth true leaf stage.” left out
as §4, §9

COC(=O)c1c(Cl)nn(C)c1S(=O)(=O)NC(=O)Nc1nc(OC)cc(OC)n1 [Halosulfuron-methyl, methyl 3-chloro-5-[[[[(4,6-dimethoxy-2-pyrimidinyl)amino]carbonyl]amino]sulfonyl]-1-methyl-1H-pyrazole-4-carboxylate, reference compound]
Visual Weed Control (%) - 21 DAA ECHOR Obs (ECHOR; 8.75 g ai/ha): 0%
Visual Weed Control (%) - 21 DAA ECHOR Obs (ECHOR; 17.5 g ai/ha): 0%
Visual Weed Control (%) - 20 DAA ECHOR Obs (ECHOR; 35 g ai/ha): 0%
Visual Weed Control (%) - 21 DAA CYPRO Obs (CYPRO; 8.75 g ai/ha): 60%
Visual Weed Control (%) - 21 DAA CYPRO Obs (CYPRO; 17.5 g ai/ha): 100%
Visual Weed Control (%) - 20 DAA SCPMA Obs (SCPMA; 35 g ai/ha): 65%
Visual Weed Control (%) - 21 DAA ECHCG Obs (ECHCG): 0%
Visual Weed Control (%) - 20 DAA BRAPP Obs (BRAPP; 4.38 g ai/ha): 0%
Visual Weed Control (%) - 20 DAA BRAPP Obs (BRAPP; 8.75 g ai/ha): 0%
Visual Weed Control (%) - 20 DAA BRAPP Obs (BRAPP; 17.5 g ai/ha): 0%
Visual Weed Control (%) - 20 DAA LEFCH Obs (LEFCH [1]; 8.75 g ai/ha): 0%
Visual Weed Control (%) - 20 DAA LEFCH Obs (LEFCH [1]; 17.5 g ai/ha): 0%
Visual Weed Control (%) - 20 DAA LEFCH Obs (LEFCH [1]; 35 g ai/ha): 5%
Visual Weed Control (%) - 20 DAA DIGSA Obs (DIGSA; 35 g ai/ha): 10%

CCOC(=O)c1cnn(C)c1S(=O)(=O)NC(=O)Nc1nc(OC)cc(OC)n1 [Pyrazosulfuron-ethyl, ethyl 5-[[[[(4,6-dimethoxy-2-pyrimidinyl)amino]carbonyl]amino]sulfonyl]-1-methyl-1H-pyrazole-4-carboxylate, reference compound]
Visual Weed Control (%) - 22 DAA ECHOR Obs (ECHOR; 17.5 g ai/ha (Sirius G)): 0%
Visual Weed Control (%) - 22 DAA ECHOR Obs (ECHOR; 35 g ai/ha (Sirius G)): 0%
Visual Weed Control (%) - 20 DAA ECHOR Obs (ECHOR; 70 g ai/ha (Sirius G)): 70%
Visual Weed Control (%) - 22 DAA LEFCH Obs (LEFCH [2]; 17.5 g ai/ha (Sirius G)): 0%
Visual Weed Control (%) - 22 DAA LEFCH Obs (LEFCH [2]; 35 g ai/ha (Sirius G)): 0%
Visual Weed Control (%) - 22 DAA SCPMA Obs (SCPMA; 17.5 g ai/ha (Sirius G)): 80%
Visual Weed Control (%) - 22 DAA SCPMA Obs (SCPMA; 35 g ai/ha (Sirius G)): 70%
Visual Weed Control (%) - 21 DAA BRAPP Obs (BRAPP; 15 g ai/ha (Agreen WG)): 0%
Visual Weed Control (%) - 21 DAA BRAPP Obs (BRAPP; 30 g ai/ha (Agreen WG)): 0%
Visual Weed Control (%) - 21 DAA BRAPP Obs (BRAPP; 60 g ai/ha (Agreen WG)): 10%
Visual Weed Control (%) - 20 DAA DIGSA Obs (DIGSA; 120 g ai/ha (Agreen WG)): 23%
Visual Weed Control (%) - 21 DAA DIGSA Obs (DIGSA; 120 g ai/ha (Agreen WG)): 23%
